One data set has as its target T1, human A3AR (Homo sapiens, UniProt P0DMS8).
T1 construct: expressed in transfected cells; host or cells: FreeStyle CHO-S cells, pcDNA3.1(+), transient
T1 sequence (P0DMS8 1-318): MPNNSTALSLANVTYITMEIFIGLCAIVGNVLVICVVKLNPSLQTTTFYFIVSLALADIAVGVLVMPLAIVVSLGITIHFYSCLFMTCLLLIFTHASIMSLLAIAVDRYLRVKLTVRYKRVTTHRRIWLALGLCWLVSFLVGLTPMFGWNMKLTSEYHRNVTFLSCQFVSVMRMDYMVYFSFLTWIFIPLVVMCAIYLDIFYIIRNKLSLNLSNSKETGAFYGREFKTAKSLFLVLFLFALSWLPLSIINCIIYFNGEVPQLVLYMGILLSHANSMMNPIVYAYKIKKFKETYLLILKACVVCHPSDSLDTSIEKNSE
Briefly: Competitive radioligand binding vs [3H]PSB-11. The note with it: for Ki: three independent experiments, read-out: A3AR vs. Radioligand [3H]PSB-11 Ki ± SEM. An excerpt: (§1) The potentially irreversible xanthine derivatives were investigated for their binding affinity at human A2BARs and for their selectivity versus the other human AR subtypes, A1, A2A, and A3, by competitive radioligand binding experiments.
(§2) The human A2AAR, the mutant human A2BAR (K269^7.32L), and the human A3AR were transiently expressed in FreeStyle^TM CHO-S cells using the transfection reagent polyethylenimine (PEI) at a ratio of 1:3 to DNA according to the manufacturer’s guideline. pcDNA3.1(+) was used as the transfection vector containing the cDNA for either the wt ARs or the K269^7.32L mutant A2BAR that was prepared by site-directed mutagenesis with the following primer: forward […], reverse […]. CHO-S cells were grown in FreeStyle^TM CHO Expression Medium supplemented with 8 mM L-glutamine before use and split to 0.5 mio. cells per mL the day before transfection. Twenty-four hours after transfection, cells were spun down by centrifugation for 15 min at 500× g. Cells were disrupted by resuspension in 5 mM tris(hydroxymethyl)aminomethane buffer (Tris, pH 7.4) containing 2 mM ethyl-ene¬diaminetetraacetic acid (EDTA) with subsequent homogenization using an Ultra-Turrax homogenizer. The cell suspension was centrifuged for 10 min at 1000× g and the obtained supernatant was pelleted by centrifugation for 60 min at 48,000× g. The supernatant was discarded and the pellet washed with 50 mM Tris (pH 7.4). After centrifugation for at least 30 min at 48,000× g, the pellet was resuspended in 50 mM Tris (pH 7.4), aliquoted and stored at −80 °C for further use. All centrifugation steps were carried out at 4 °C. Membrane preparations of the human wt A1AR and the human wt A2BAR were purchased from Perkin Elmer (Perkin-Elmer, Waltham, MA, USA) (catalogue numbers ES-010-M400UA and ES-013-M400UA).
(§3) Binding experiments were performed using 50 mM Tris buffer (pH 7.4) in a total volume of 400 µL for the A1AR, A2AAR, A3AR, and 1000 µL for the A2BAR. Initial screening was carried out in two independent experiments at 1 µM. Competition of compounds versus [^3H]CCPA (A1AR, final concentration 1 nM), [^3H]MSX-2 (A2AAR, final concentration 1 nM), [^3H]PSB-603 (A2BAR, final concentration 0.3 nM) and [^3H]PSB-11 (A3AR, final concentration 1 nM) was investigated. An amount of 7.5–25 µg of total protein per well was employed, incubated with 2 U of adenosine deaminase per mL beforehand. Non-specific binding was determined in the presence of 10 µM of 2-chloroadenosine, 10 µM of CGS 15943, 10 µM of 8-cyclopently-1,3-dipropylxanthine or 100 µM of (R)-N^6-phenylisopropyadenosine for A1-, A2A-, A2B- and A3ARs, respectively. Competition association experiments (at 25 °C) were performed in the same way but the protein was added delayed at indicated time points and the cell membranes were harvested after 1 min. Incubation was terminated by rapid filtration through GF/B glass fiber filters (Whatman) using a 48-well harvester (Brandel) after 90 (A1AR), 30 (A2AAR), 75 (A2BAR), and 45 min (A3AR) of incubation, respectively. Filters were pre-incubated with 0.3% (w/v) of PEI for 30–60 min in case of the A2AAR assay. Filters were rinsed three times with ice-cold 50 mM Tris, pH 7.4 (supplemented with 0.1% (w/v) bovine serum albumin for the A2BAR) and transferred into scintillation vials. Filters were then incubated with 2.5 mL of scintillation cocktail (ProSafe FC plus) for at least 6 h. Subsequently, radioactivity was determined using a liquid scintillation counter (Tricarb 2810TR, Perkin Elmer).

A further data set deals with T2, human A1AR (Homo sapiens, UniProt P30542).
T2 construct: purchased Perkin Elmer ES-010-M400UA
T2 sequence (P30542 1-326): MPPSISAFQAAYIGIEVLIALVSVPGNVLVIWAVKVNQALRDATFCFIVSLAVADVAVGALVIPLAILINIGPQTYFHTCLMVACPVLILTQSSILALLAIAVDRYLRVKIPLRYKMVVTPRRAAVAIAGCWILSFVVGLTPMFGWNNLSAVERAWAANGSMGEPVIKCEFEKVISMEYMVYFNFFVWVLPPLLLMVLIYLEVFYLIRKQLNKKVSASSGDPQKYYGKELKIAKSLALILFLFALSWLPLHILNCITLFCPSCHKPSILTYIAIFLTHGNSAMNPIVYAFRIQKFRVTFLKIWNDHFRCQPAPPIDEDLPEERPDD
As to the kind of experiment: Competitive radioligand binding vs [3H]CCPA. The note with it: for Ki: apparent Ki for irreversibly binding ligands, three independent experiments, read-out: A1AR vs. Radioligand [3H]CCPA Ki ± SEM.
Excerpt: as §1, §2, §3

A further data set concerns the target T3, human A2AAR (Homo sapiens, UniProt P29274).
T3 construct: expressed in transfected cells; host or cells: FreeStyle CHO-S cells, pcDNA3.1(+), transient
Briefly: Competitive radioligand binding vs [3H]MSX-2. The note with it: for Ki: apparent Ki for irreversibly binding ligands, three independent experiments, read-out: A2AAR vs. Radioligand [3H]MSX-2 Ki ± SEM.
Excerpt: as §1, §2, §3

Bounds are passed on as bounds.

T3 sequence (P29274 whole entry): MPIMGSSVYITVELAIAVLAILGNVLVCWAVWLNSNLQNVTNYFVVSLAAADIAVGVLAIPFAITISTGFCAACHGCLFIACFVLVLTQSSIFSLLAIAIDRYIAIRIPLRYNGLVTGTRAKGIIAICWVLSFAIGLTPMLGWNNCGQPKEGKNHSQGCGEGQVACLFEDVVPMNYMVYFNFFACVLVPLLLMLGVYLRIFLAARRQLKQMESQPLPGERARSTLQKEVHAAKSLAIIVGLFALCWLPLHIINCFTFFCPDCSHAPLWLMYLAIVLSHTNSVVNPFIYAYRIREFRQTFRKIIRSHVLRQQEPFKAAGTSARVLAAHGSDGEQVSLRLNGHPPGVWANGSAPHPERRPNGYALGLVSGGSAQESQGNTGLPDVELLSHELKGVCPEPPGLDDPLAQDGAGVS

As a reminder, the melting point is the temperature, or range, at which the solid turns liquid. `CCCn1c(=O)[nH]c2nc(-c3ccc(S(=O)(=O)F)cc3)[nH]c2c1=O` [6a, 4-(2,6-Dioxo-1-propyl-2,3,6,7-tetrahydro-1H-purin-8-yl)benzenesulfonyl fluoride] came in with a melting point above 300 °C. For the same compound, at human A3AR, the “A3AR vs. Radioligand [3H]PSB-11 % inhibition at 1 µM” value came to 27% and the Ki was above 1000 nM. Also, the Ki at human A1AR was 406 ± 194 nM. In addition, at human A2AAR, the “A2AAR vs. Radioligand [3H]MSX-2 % inhibition at 1 µM” value amounted to 53% and the Ki is around 1000 nM.
`CCCn1c(=O)c2[nH]c(-c3ccc(S(=O)(=O)F)cc3)nc2n(C)c1=O` [6b, 4-(3-Methyl-2,6-dioxo-1-propyl-2,3,6,7-tetrahydro-1H-purin-8-yl)benzenesulfonyl fluoride] had a melting point above 300 °C. Moreover, on human A3AR, the “A3AR vs. Radioligand [3H]PSB-11 % inhibition at 1 µM” value worked out at 13% and the Ki is above 1000 nM. Also, at human A1AR, the Ki worked out at 293 ± 92 nM. Also, the Ki on human A2AAR came out at 372 ± 48 nM.
On the same counts, the results for `CCCn1c(=O)c2[nH]c(-c3ccc(S(=O)(=O)F)cc3)nc2n(C2CC2)c1=O` [6c, 4-(3-Cyclopropyl-2,6-dioxo-1-propyl-2,3,6,7-tetrahydro-1H-purin-8-yl)benzenesulfonyl fluoride] are above 300 °C, 33%, above 1000 nM, 41.5 ± 2.8 nM and 72.9 ± 8.1 nM.
For the compound `CCCn1c(=O)[nH]c2nc(-c3ccc(S(=O)(=O)N4CCC(NC(=O)c5ccc(S(=O)(=O)F)cc5)CC4)cc3)[nH]c2c1=O` [compound 12, 4-((1-((4-(2,6-Dioxo-1-propyl-2,3,6,7-tetrahydro-1H-purin-8-yl)phenyl)sulfonyl)piperidin-4-yl)carbamoyl)benzenesulfonyl fluoride], the “A3AR vs. Radioligand [3H]PSB-11 % inhibition at 1 µM” value on human A3AR amounted to 15%. Besides, the Ki on human A3AR, at human A1AR and on human A2AAR was above 1000 nM each time. At human A1AR (1 µM), the “A1AR vs. Radioligand [3H]CCPA % inhibition at 1 µM” value is reported as 22%. At human A2AAR, the “A2AAR vs. Radioligand [3H]MSX-2 % inhibition at 1 µM” value amounted to 32%.

Source of the values: paper PMC9231011, “Irreversible Antagonists for the Adenosine A2B Receptor” (Molecules, 2022).
